According to patent publication US11464770B2, “Anticancer pharmaceutical composition” (NATIONAL CANCER CENTER, priority 2016, dated 2022):
Read-outs that look alike come from different tables or passages of the source.

What was measured:
[1] = test system: prostate cancer cell lines (e.g. DU145/TXR); test: Cell based assay, cell viability (CellTiter-Glo), prostate cancer cell lines; conditions: Homo sapiens, 72 hours treatment, final concentration 0 to 2 μM
Description: (§1) Commercially available bladder cancer, prostate cancer, lung cancer, breast cancer, blood cancer, pancreatic cancer, colorectal cancer, brain cancer, neuroblastoma, melanoma, liver cancer, cervical carcinoma, ovarian cancer, renal cancer, and papilloma cell lines were each treated with trypsin-EDTA and cultured, followed by being seeded in each well of a 96 well plate. After 24 hours of treatment at constant temperature, the respective cells were treated with the candidate compound so that a final concentration became 0 to 2 μM. The treated cells were additionally cultured for 72 hours, and cell viability was measured by using an ATP detection method (CellTiter-Glo® Luminescent Cell Viability Assay, Promega).

[2] = test system: RT4: human urinary bladder transitional cell papilloma; test: Cell based assay, cytotoxicity in RT4 papilloma cells (selectivity); conditions: Homo sapiens, RT-4; RT4 cells
Description: as §1, with “After 24 hours of treatment at constant temperature, the respective cells were treated with the candidate compound so that a final concentration became 0 to 2 μM.” left out

neuroblastoma cell lines = test: Cell based assay, cell viability (CellTiter-Glo), neuroblastoma cell lines; conditions: Homo sapiens; SH-SY5Y cell line
Description: as §1

[3] = CWR22 cells, read-out: IC50, prostate cancer cell line CWR22
[4] = DU-145, DU145/TXR cells, read-out: IC50, prostate cancer cell line DU145/TXR
[5] = DU-145, DU145 cells, read-out: IC50, prostate cancer cell line DU145
[6] = LNcap cells, read-out: IC50, prostate cancer cell line LNcap
[7] = PC-3 cells, read-out: IC50, prostate cancer cell line PC-3

SMILES | IC50 [1, 3] [µM] | IC50 [1, 4] [µM] | IC50 [1, 5] [µM] | IC50 [1, 6] [µM] | IC50 [1, 7] [µM] | IC50 [2] [µM] | IC50 (neuroblastoma cell lines) [µM]
CC(=O)c1c([S+](C)[O-])n(S(=O)(=O)c2ccc(C(C)(C)C)cc2)c2c(Br)ccc(Cl)c2c1=O (stereo not drawn) [Compound 42, 3-acetyl-8-bromo-1-((4-(tert-butyl)phenyl)sulfonyl)-5-chloro-2-(methylsulfinyl)quinolin-4(1H)-one] | > 2 | > 2 | > 2 | > 2 | > 2 | > 10 | > 2
CC(=O)c1c(S(=O)(=O)Cc2ccccc2)nc2c(Br)ccc(Cl)c2c1O [Compound 54, 1-(2-(benzylsulfonyl)-8-bromo-5-chloro-4-hydroxyquinolin-3-yl)ethan-1-one] | > 2 | > 2 | > 2 | > 2 | > 2 | > 10 | > 2
COc1cccc2[nH]c([S+]([O-])Cc3ccc(S(F)(F)(F)(F)F)cc3)c(C(C)=O)c(=O)c12 (stereo not drawn) [Compound 93, 3-acetyl-5-methoxy-2-((4-(pentafluoro--sulfanyl)benzyl)sulfinyl)quinolin-4(1H)-one] | > 2 | > 2 | > 2 | > 2 | – | > 10 | > 2
CSc1c(C(C)=O)c(=O)c2c(Cl)ccc(Br)c2n1S(=O)(=O)c1ccc([N+](=O)[O-])cc1 [Compound 38, 3-acetyl-8-bromo-5-chloro-2-(methylthio)-1-((4-nitrophenyl)sulfonyl)quinolin-4(1H)-one] | > 2 | > 2 | > 2 | > 2 | > 2 | > 10 | > 2
CC(=O)c1c(S/C=C\C(=O)O)[nH]c2c(Br)ccc(Cl)c2c1=O [Compound 67, (Z)-3-((3-acetyl-8-bromo-5-chloro-4-oxo-1,4-dihydroquinolin-2-yl)thio)acrylic acid] | > 2 | > 2 | > 2 | > 2 | > 2 | > 10 | > 2
CC(=O)c1c([S+]([O-])Cc2ccc(Cl)cc2)[nH]c2c(Br)ccc(Cl)c2c1=O (stereo not drawn) [Compound 11, 3-acetyl-8-bromo-5-chloro-2-((4-chlorobenzyl)sulfinyl)quinolin-4(1H)-one] | > 2 | 1.81 | > 2 | > 2 | > 2 | > 10 | > 2
CC(=O)c1c([S+]([O-])Cc2ccccc2)n(C(=O)c2ccc(Br)cc2)c2c(Br)ccc(Cl)c2c1=O (stereo not drawn) [Compound 20, 3-acetyl-2-(benzylsulfinyl)-8-bromo-1-(4-bromobenzoyl)-5-chloroquinolin-4(1H)-one] | > 2 | > 2 | > 2 | > 2 | > 2 | > 10 | > 2
CC(=O)c1c(SCc2ccc([N+](=O)[O-])cc2)[nH]c2c(Br)ccc(Cl)c2c1=O [Compound 32, 3-acetyl-8-bromo-5-chloro-2-((4-nitrobenzyl)thio)quinolin-4(1H)-one] | > 2 | > 2 | > 2 | > 2 | > 2 | > 10 | > 2
COc1ccccc1[S+]([O-])c1[nH]c2c(Br)ccc(Cl)c2c(=O)c1C(C)=O (stereo not drawn) [Compound 15, 3-acetyl-8-bromo-5-chloro-2-((2-methoxyphenyl)sulfinyl)quinolin-4(1H)-one] | > 2 | 1.88 | > 2 | > 2 | – | > 10 | > 2
CSc1c(C(C)=O)c(=O)c2c(Cl)ccc(Br)c2n1S(C)(=O)=O [Compound 35, 3-acetyl-8-bromo-5-chloro-1-(methylsulfonyl)-2-(methylthio)quinolin-4(1H)-one] | > 2 | > 2 | > 2 | > 2 | > 2 | > 10 | > 2
CC(=O)c1c([S+]([O-])C(C)C)[nH]c2c(Br)ccc(Cl)c2c1=O (stereo not drawn) [Compound 25, 3-acetyl-8-bromo-5-chloro-2-(isopropylsulfinyl)quinolin-4(1H)-one] | > 2 | > 2 | > 2 | > 2 | > 2 | > 10 | > 2
